US20250195501A1, “CELL ENTRY-MODULATING AGENTS AND USES THEREFOR” (priority 2020, published 2025)
Read-outs that look alike come from different tables or passages of the source.

Key:
SARS-CoV-2 = test: microbe, parasite or virus in culture; format: cell-based; details: for IC50: read-out: IC50 Mean ± SD (SARS-CoV-2 infection); for SI (selectivity index, CC50/IC50): Vero-E6 cells
Vero-E6 cells = details: for CC50: read-out: CC50 Mean ± SD, Vero-E6 cells, 24 h at 37° C., no virus, alamarBlue
[1] = molecular target: T1, ACE2:RBD-mimic1 peptide interaction (Homo sapiens, UniProt Q9BYF1); test: Direct competition SPR: compound vs RBD-mimic1 peptide binding to human ACE2; details: compound and RBD-mimic1 peptide flowed at 1 μM over human ACE2
T1 construct: purchased R&D Systems and Assay Matrix (ACE2); Mimotopes (peptide)
T1 sequence (Q9BYF1 18-740 limits assumed): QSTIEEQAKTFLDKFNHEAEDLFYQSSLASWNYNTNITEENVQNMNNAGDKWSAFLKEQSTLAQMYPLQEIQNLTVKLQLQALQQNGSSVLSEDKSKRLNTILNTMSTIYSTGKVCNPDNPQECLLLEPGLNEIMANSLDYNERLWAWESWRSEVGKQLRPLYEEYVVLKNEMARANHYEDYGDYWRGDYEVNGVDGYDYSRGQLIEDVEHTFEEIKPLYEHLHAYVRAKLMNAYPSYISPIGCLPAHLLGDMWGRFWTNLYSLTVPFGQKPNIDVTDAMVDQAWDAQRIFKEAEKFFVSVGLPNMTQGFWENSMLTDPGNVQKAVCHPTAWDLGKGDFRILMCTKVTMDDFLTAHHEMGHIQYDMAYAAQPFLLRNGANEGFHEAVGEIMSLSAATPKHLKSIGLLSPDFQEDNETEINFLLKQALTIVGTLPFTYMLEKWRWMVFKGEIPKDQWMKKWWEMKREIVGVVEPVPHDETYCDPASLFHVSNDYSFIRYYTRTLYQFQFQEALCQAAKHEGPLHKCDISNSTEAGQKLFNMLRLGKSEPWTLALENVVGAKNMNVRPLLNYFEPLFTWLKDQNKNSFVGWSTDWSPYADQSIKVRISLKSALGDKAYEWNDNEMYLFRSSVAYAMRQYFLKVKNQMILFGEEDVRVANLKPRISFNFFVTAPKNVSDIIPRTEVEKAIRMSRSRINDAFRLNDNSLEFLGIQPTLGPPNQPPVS
Experimental: Peptide alone, compound alone and the competition. Percentage competition is calculated by the reduction in final peptide binding divided by the difference between the peptide and the compound alone.
All SPR sensorgrams and results plots were analyzed with Biacore S200 Evaluation Software (GE Healthcare Life Sciences).

| Compound | IC50 (SARS-CoV-2; Severe acute respiratory syndrome coronavirus 2, Vero C1008, 24 h) | SI (selectivity index, CC50/IC50) (SARS-CoV-2) | CC50 (Vero-E6 cells) | 1:1 Competition between compound vs RBD-mimic1 peptide @ 1 μM (block: Yes/Partial) [1] | toxicity toward Vero-E6 cells in the infection assay (Vero-E6 cells) | 1:1 Competition between compound vs RBD-mimic1 peptide @ 1 μM (percentage competition) [1] | IC50 (SARS-CoV-2) |
| --- | --- | --- | --- | --- | --- | --- | --- |
| Cc1ccc(C(=O)Nc2ccc(S(=O)(=O)O)c3cc(S(=O)(=O)O)cc(S(=O)(=O)O)c23)cc1NC(=O)c1cccc(NC(=O)Nc2cccc(C(=O)Nc3cc(C(=O)Nc4ccc(S(=O)(=O)O)c5cc(S(=O)(=O)O)cc(S(=O)(=O)O)c45)ccc3C)c2)c1 [Suramin] | 28.1 ± 1.2 µM | >21.6 | > 1000 µM | – | – | – | – |
| CC1(C)CCC(CN2CCN(c3ccc(C(=O)NS(=O)(=O)c4ccc(NCC5CCOCC5)c([N+](=O)[O-])c4)c(Oc4cnc5[nH]ccc5c4)c3)CC2)=C(c2ccc(Cl)cc2)C1 [Venetoclax] | – | – | – | Partial | toxicity was observed | – | – |
| CCc1c2c(nc3ccc(OC(=O)N4CCC(N5CCCCC5)CC4)cc13)-c1cc3c(c(=O)n1C2)COC(=O)[C@]3(O)CC [Irinotecan] | – | – | – | Yes | toxicity was observed | (100% ± 6.36) | – |
| Cc1cc(-c2ccc(/N=N/c3ccc4c(S(=O)(=O)[O-])cc(S(=O)(=O)[O-])c(N)c4c3O)c(C)c2)ccc1/N=N/c1ccc2c(S(=O)(=O)[O-])cc(S(=O)(=O)[O-])c(N)c2c1O.[Na+].[Na+].[Na+].[Na+] [Evans Blue] | – | >35.6 | > 1000 µM | completely block and Yes | low toxicity | ~100% | 28.1 ± 1.2 µM |
| COC[C@H]1C[C@@H](c2nc(-c3ccc4c(c3)COc3cc5c(ccc6nc([C@@H]7CC[C@H](C)N7C(=O)[C@@H](NC(=O)OC)C(C)C)[nH]c65)cc3-4)c[nH]2)N(C(=O)[C@H](NC(=O)OC)c2ccccc2)C1 [Velpatasvir] | – | – | – | Partial | toxicity was observed | – | – |
| Ledipasvir | – | – | – | Partial | toxicity was observed | – | – |
